Patent US12492236B2, “Fusion proteins for the treatment of cardiometabolic diseases” (Shattuck Labs, Inc., priority 2022, dated 2025)

T1: recombinant human Activin A (Homo sapiens, UniProt P08476)
T1 sequence (P08476 311-426): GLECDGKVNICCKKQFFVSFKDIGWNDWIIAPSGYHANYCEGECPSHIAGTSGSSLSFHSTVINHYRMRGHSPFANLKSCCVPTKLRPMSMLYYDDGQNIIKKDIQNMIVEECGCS

T2: recombinant human GDF-8 (Homo sapiens, UniProt O14793)
T2 sequence (O14793 267-375): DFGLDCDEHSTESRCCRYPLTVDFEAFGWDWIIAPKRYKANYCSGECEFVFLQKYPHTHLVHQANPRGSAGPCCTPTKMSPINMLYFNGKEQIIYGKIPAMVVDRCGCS

T3: glucose-dependent insulinotropic polypeptide receptor (GIPR) (Homo sapiens, UniProt P48546)
T3 construct: host or cells: HEK293T (GeneBLAzer GIPR-CRE-bla)
T3 sequence (P48546 22-466): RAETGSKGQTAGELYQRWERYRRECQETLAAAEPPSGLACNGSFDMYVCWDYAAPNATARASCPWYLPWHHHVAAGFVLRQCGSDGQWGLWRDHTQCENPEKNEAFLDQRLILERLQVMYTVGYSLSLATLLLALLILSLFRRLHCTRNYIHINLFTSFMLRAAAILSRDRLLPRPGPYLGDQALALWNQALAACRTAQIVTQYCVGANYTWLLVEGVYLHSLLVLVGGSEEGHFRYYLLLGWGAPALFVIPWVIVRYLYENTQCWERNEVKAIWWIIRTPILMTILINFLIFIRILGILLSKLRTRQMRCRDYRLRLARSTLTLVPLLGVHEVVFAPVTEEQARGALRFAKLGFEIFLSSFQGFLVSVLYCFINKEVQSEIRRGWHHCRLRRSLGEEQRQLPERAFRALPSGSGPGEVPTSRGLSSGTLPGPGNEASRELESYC

T4: GIP receptor (GIPR) (Rattus norvegicus, UniProt P43219)
T4 construct: endogenous in cells; host or cells: rat INS-1 insulinoma cells (with cAMP-luciferase reporter / pGloSensor-22F biosensor)
T4 sequence (P43219 19-455): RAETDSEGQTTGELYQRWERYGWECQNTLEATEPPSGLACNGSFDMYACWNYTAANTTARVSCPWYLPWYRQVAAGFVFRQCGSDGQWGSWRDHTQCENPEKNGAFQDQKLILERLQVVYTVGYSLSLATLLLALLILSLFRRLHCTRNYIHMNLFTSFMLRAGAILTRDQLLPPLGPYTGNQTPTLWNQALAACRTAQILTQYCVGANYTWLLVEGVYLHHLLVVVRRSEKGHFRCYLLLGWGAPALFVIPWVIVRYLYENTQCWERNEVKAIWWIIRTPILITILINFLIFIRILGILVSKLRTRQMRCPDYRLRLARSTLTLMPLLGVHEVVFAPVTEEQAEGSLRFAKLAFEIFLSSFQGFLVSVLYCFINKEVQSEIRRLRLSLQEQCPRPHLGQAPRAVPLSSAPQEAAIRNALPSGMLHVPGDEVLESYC

B1: GIP(Ag)-Fc-FGF19: GIP fused to FGF19 via a hinge-CH2-CH3 Fc domain derived from IgG1; SEQ ID NO: 88 (protein)
chain: YAEGTFISDYSIAMDKIHQQDFVNWLLAQKGKKNDWKHNITQPCPAPEAAGGPSVFLFPPKPKDTLMISRTPEVTCVVVDVSHEDPEVKFNWYVDGVEVHNAKTKPREEQYNSTYRVVSVLTVLHQDWLNGKEYKCKVSNKALPAPIEKTISKAKGQPREPQVYTLPPSRDELTKNQVSLTCLVKGFYPSDIAVEWESNGQPENNYKTTPPVLDSDGSFFLYSKLTVDKSRWQQGNVFSCSVMHEALHNHYTQKSLSLSPGKIEGRMDRDSSPLVHYGWGDPIRLRHLYTSGPHGLSSCFLRIRADGVVDCARGQSAHSLLEIKAVALRTVAIKGVHSVRYLCMGADGKMQGLLQYSEEDCAFEEEIRPDGYNVYRSEKHRLPVSLSSAKQRQLYKNRGFLPLSHFLPMLPMVPEEPEDLRGHLESDMFSSPLETDSMDPFGLVTGLEAVRSPSFEK

Key:
[1] = test system: rat insulinoma INS-1 cells; assay: in vitro glucose-stimulated insulin secretion (GSIS) in INS-1 cells; assay type: cell-based; conditions: 1 hour glucose, then 2 hour incubation, ELISA, FIG. 4B
From the text: X is a known inducer of GSIS.

[2] = test system: HFD-fed mice (Male C57BL/6); assay: glucose tolerance test (GTT) model in HFD-fed mice; assay type: in vivo
Method: Cages were changed once, then changed once a week.
The mice administered the above treatment by i.v. injections. The mice were then fasted for 18 hours and administered a dose of 2 g/kg glucose by i.v. injections. Blood samples were drawn by tail clip bleeding at 15, 30 and 60 minutes post dosing and cardiac bleeding was used at 2 hours after glucose injection as end-point.

[3] = test system: HFD-fed mice (Male C57BL/6); assay: longer-term obesity model in HFD-fed mice
From the text: Briefly, mice (Male C57BL/6) were of approximately 13 weeks of age were housed 4 mice per cage. Following 2 weeks of acclimation, mice were introduced to 60% kcal HFD (Research Diets D12492). Cages were changed once, then changed once a week. Weekly body weights and non-fasted blood glucose were collected. […] The longer-term obesity model assesses a number of end points associated with obesity related type 2 diabetes (FIG. 6A).
Mice (Male C57BL/6) were of approximately 13 weeks of age were housed 4 mice per cage. Following 2 weeks of acclimatation, mice were introduced to 60% kcal HFD (Research Diets D12492). Cages were changed once, then changed once a week. Weekly body weights and non-fasted blood glucose were collected.
Mice were injected by tail vein with vehicle or the drugs on Day 0, Day 4, Day 7, Day 10, Day 14, and Day 18. Body weights were measured every 2 days. Change in body weight was calculated and plotted.
Cumulative food intake was measured between day 0 and 3, between day 4 and 7, between day 7 and day 11, and between day 11 and day 14, and represented as average daily food intake. For food consumption, remaining food was weighed on days 3, 8, and 15, and subtracted from the starting weight. This value was then normalized to the number of mice in the cage, and the number of days the mice had access to the food prior to weighing.
Blood glucose levels were measured on Days 0, 1, 10 and 15 and plotted.
On day 19 during terminal necropsy, liver and subcutaneous white adipose tissue were recovered weighed from treated animals.
To further analyze the changes in liver, histopathological analysis was conducted. Briefly, the liver tissue was stained with hematoxylin and eosin (H&E) and evaluated using standard techniques.

[4] = biological target: T1, recombinant human Activin A; assay: MSD platform-based binding assay on plate-bound Activin A; conditions: MSD signal, serial dilutions
Method: (§1) The binding by a recombinant human ACVR2B-Fc fusion protein to activin A (also known as Inhibin beta A) was characterized using a Meso Scale Discovery (MSD) platform-based assay. Briefly, Activin A was coated on a plate and 8× serial dilutions of the purified recombinant human ACVR2B-Fc fusion protein were also added in a series of wells. The protein captured by the plate-bound Activin A was detected using an anti-human Fc antibody and a SULFO-TAG conjugated secondary antibody.
(§2) The binding to Activin A by the GLP-1-Fc-ACVR2B fusion protein produced using the mmRNA constructs was investigated using a Meso Scale Discovery (MSD) platform-based assay. Briefly, HEK293T cells were transfected with each mRNA construct using lipofectamine 2000, and culture supernatants were collected after 48 hours. Activin A was coated on a plate, and 3× serial dilutions of the culture supernatants were added to the plate for capture by the plate-bound Activin A. The protein captured by the plate-bound Activin A was detected using an anti-human Fc antibody and a SULFO-TAG conjugated secondary antibody. The MSD signals generated by the culture supernatants of HEK293T cells transfected with different mmRNA constructs were plotted as a line graph.

recombinant human GDF-8 = biological target: T2, recombinant human GDF-8; assay: MSD platform-based binding assay on plate-bound GDF-8; conditions: MSD signal, serial dilutions
Method: as §1, with “GDF-8” for “activin A”, “myostatin)” for “Inhibin beta A)”, “GDF-8” for “Activin A”
as §2, with “GDF-8” for “Activin A”, “GDF-8.” for “Activin A.”

[5] = biological target: T3, glucose-dependent insulinotropic polypeptide receptor (GIPR); assay: GeneBLAzer GIPR-CRE-bla HEK293T cell-based reporter assay; conditions: increasing amounts, FIG. 3B
Method: This assay is diagrammatically represented in FIG. 3A. […] In the presence of the β-lactamase LiveBLAzer™ substrate, cells expressing β-lactamase fluoresce blue (460 nm), while those not expressing β-lactamase fluoresce green (530 nm); higher 460/530 ratio indicates the activation of GIPR.
Briefly, GeneBLAzer® GIPR-CRE-bla HEK293T cells were added to wells of black-wall assay plates. […] To each well, LiverBLAzer-FRET B/G substrate mixture was added. The plate was covered with plate sealer and incubated at room temperature for 2 hours in the dark. Fluorescence emission was measured on SpectraMax plate reader at 460 nm and 530 nm with excitation set to 409 nm. After subtraction of background, average value at 460 nm (blue color) was divided by average value at 530 nm (green color) to obtain the 460/530 ratio.

GIP receptor (GIPR) = biological target: T4, GIP receptor (GIPR); assay: cAMP-Glo assay in rat insulinoma INS-1 cells harboring a cAMP-luciferase reporter gene; assay type: cell-based; conditions: 1 hour glucose, then 2 hour incubation, FIG. 4A
From the text: Rat insulinoma INS-1 cells harboring a cAMP-luciferase reporter gene were used to study the activation of GIPR. Without wishing to be bound by theory, the activation of GIPR leads to temporary depletion of ATP because of consumption of ATP in cyclization reaction to produce cAMP as well as by phosphorylation by protein kinase A of its substrate. Without wishing to be bound by theory, the temporary depletion of ATP leads to an inhibition of luciferase activity, which needs ATP as a substrate.

binding to Activin A [4] | binding to GDF-8 (recombinant human GDF-8) | Molecule | insulin in culture supernatant (GSIS) [1] | serum insulin time course following glucose administration ([2]; FIG. 7C) | serum glucose time course following glucose administration ([2]; i.v. treatment, 18 hours fast, 2 g/kg glucose, versus PBS control (200 to about 800 mg/dl), FIG. 7A) | glucose tolerance ([2]; summary of GTT model) | blood glucose levels ([3]; Days 0, 1, 10 and 15, compared to the untreated mice, FIG. 8E) | weights of individual mice ([3]; FIG. 8B) | liver histology: hepatocellular ballooning and steatosis ([3]; H&E, FIG. 8J) | plasma insulin levels on Day 1 ([3]; between 15 and 120 minutes after treatment, one way ANOVA p<0.05, FIG. 8C left panel) | average daily food intake ([3]; compared to the untreated mice, FIG. 8D) | liver weight: livers of PBS control mice versus treated mice ([3]; day 19 necropsy, FIG. 8G) | subcutaneous white adipose tissue (sWAT) weight ([3]; day 19 necropsy, versus PBS control, FIG. 8H) | tolerability ([3]; obesity model) | plasma insulin levels on Day 15 ([3]; one way ANOVA p<0.0001, FIG. 8C right panel) | decrease in liver collagen staining relative to tirzepatide or dulaglutide ([3]; picrosirius red, FIG. 8I) | liver collagen staining (fibrosis) ([3]; picrosirius red, FIG. 8I) | change in body weight ([3]; tail vein dosing Day 0, 4, 7, 10, 14, 18, FIG. 8A) | 460/530 ratio, indicative of the activation of GIPR [5] | inhibition of luciferase (GIPR activation, cAMP accumulation) (GIP receptor (GIPR))
– | – | GLP-1-Fc-GIP(Ag): GLP-1 fused to GIP agonist peptide (amino acids 1-42) via a hinge-CH2-CH3 Fc domain derived from IgG1; SEQ ID NO: 93 | stimulated insulin production to a similar, if not greater magnitude than dulaglutide or tirzepatide | rapid induction of insulin | much smaller increase in serum glucose | improved glucose tolerance | decrease in blood glucose | induced weight loss | a decrease in hepatocellular ballooning and steatosis | rapid decrease in insulin levels | decrease in food intake | much heavier compared to the mice receiving treatments | decreased | well tolerated and no overt toxicities were noted | significant decrease in the levels of insulin | greater decrease in collagen staining | a decrease in collagen staining | progressive weight loss | – | –
binds to the human Activin A | binds to the human GDF-8 | GLP-1-Fc-ACVR2B: GLP-1 fused to ACVR2B extracellular domain via IgG1 hinge-CH2-CH3 Fc domain; SEQ ID NO: 154 | – | – | – | – | – | – | – | – | – | – | – | – | – | – | – | – | – | –
– | – | B1 | stimulated insulin production to a similar, if not greater magnitude than dulaglutide or tirzepatide | – | – | – | – | – | – | – | – | – | – | – | – | – | – | – | dose-dependent and saturable increase in 460/530 ratio | dose-dependent and saturable inhibition of luciferase with similar potency
